Test results published in patent publication EP1144368B1, “ACETYLENIC ALPHA-AMINO ACID-BASED SULFONAMIDE HYDROXAMIC ACID TACE INHIBITORS” (priority 1999, dated 2000).
Structures can show the parent of a compound that is named as a salt. Where two headings read alike, the source gives them in different places.

Test system: THP-1 cells
Assay: THP-1 Soluble Protein Assay (LPS-stimulated; ELISA of TNF-a, TNF-R p75/80, TNF-R p55/60, IL-8)
Type: cell-based, human
Conditions: Homo sapiens
[1] = THP-1, read-out: THP % inhibition @ 3 µM, 3 µM
[2] = THP-1, 3 µM, read-out: THP % Inhibition @ 3µM

Description: Each vial of cells are cultured for about two weeks prior to being used for an assay and then are used for only 4 to 6 weeks to screen compounds.
Plates are placed into an incubator set at 5% CO2 and at 37° C. After 4 hours of incubation, 300 ml/well of tissue culture supernatant (TCS) is removed for use in an TNF-a ELISA.
Percent change in each soluble protein evaluated from the "vehicle positive control" was calculated for each compound concentration with the following formula: % Change =(pg/ml (compound) - pg/ml (veh pos control))/(pg/ml (veh pos control) - pg/ml (veh neg control))x 100 [formula]
For the soluble protein (TNF-a, p75/80, p55/60, IL-8) studies under stimulated conditions, the mean pg/ml of duplicate wells were determined and the results expressed as percent change from "vehicle positive control".

CC1(C)SCCN(S(=O)(=O)c2ccc(OCC#CCCCOC3CCCCO3)cc2)C1C(=O)NO (centres unmarked) [Example 248, N-Hydroxy-2,2-dimethyl-4-[(4-{[6-(tetrahydro-2H-pyran-2-yloxy)-2-hexynyl]oxy}phenyl)sulfonyl]-3-thiomorpholine carboxamide]
inhibition at 3 µM [1]: 21%

CC1(C)SCCN(S(=O)(=O)c2ccc(OCC#CCCCO)cc2)C1C(=O)NO (centres unmarked) [Example 249, N-Hydroxy-4-({4-[(6-hydroxy-2-hexynyl)oxy]phenyl}sulfonyl)-2,2-dimethyl-3-thiomorpholine carboxamide]
inhibition at 3 µM [1]: 51%

CC(C)(C)OC(=O)NCCCC#CCOc1ccc(S(=O)(=O)N2CCSC(C)(C)[C@@H]2C(=O)NO)cc1 [Example 250, tert-Butyl 6-[4-({(3S)-3-[(hydroxyamino)carbonyl]-2,2-dimethylthiomorpholinyl}sulfonyl)phenoxy]-4-hexynylcarbamate]
inhibition at 3 µM [1]: 27%

CC1(C)SCCN(S(=O)(=O)c2ccc(OCC#CCCCN)cc2)[C@H]1C(=O)NO [Example 251, (3S)-4-({4-[(6-Amino-2-hexynyl)oxy]phenyl}sulfonyl)-N-hydroxy-2,2-dimethyl-3-thiomorpholine carboxamide]
inhibition at 3 µM [1]: 22%

CC(C)(C)OC(=O)NCCCCC#CCOc1ccc(S(=O)(=O)N2CCSC(C)(C)[C@@H]2C(=O)NO)cc1 [Example 252, tert-Butyl 7-[4-({(3S)-3-[(hydroxyamino)carbonyl]-2,2-dimethylthiomorpholinyl}sulfonyl)phenoxy]-5-heptynylcarbamate]
inhibition at 3 µM [1]: 70%

CC1(C)SCCN(S(=O)(=O)c2ccc(OCC#CCCCCN)cc2)[C@H]1C(=O)NO [Example 253, (3S)-4-({4-[(7-Amino-2-heptynyl)oxy]phenyl}sulfonyl)-N-hydroxy-2,2-dimethyl-3-thiomorpholine carboxamide]
inhibition at 3 µM [1]: 37%

CC1(C)SCCN(S(=O)(=O)c2ccc(OCC#Cc3ccccc3)cc2)[C@H]1C(=O)NO [Example 254, (3S)-N-Hydroxy-2,2-dimethyl-4-({4-[(3-phenyl-2-propynyl)oxy]phenyl}sulfonyl)-3-thiomorpholine carboxamide]
inhibition at 3 µM [1]: 77%

CC#CCOc1ccc(S(=O)(=O)N2CCS(=O)(=O)C(C)(C)[C@@H]2C(=O)NO)cc1 [Example 257, (3S)-4-{[4-(2-Butynyloxy)phenyl]sulfonyl}-N-hydroxy-2,2-dimethyl-3-thiomorpholine carboxamide 1,1-dioxide]
inhibition at 3 µM [1]: 91%

C#CCOc1ccc(S(=O)(=O)N2CCSC(C)(C)[C@@H]2C(=O)NO)cc1 [Example 258, (3S)-N-Hydroxy-2,2-dimethyl-4-{[4-(2-propynyloxy)phenyl]sulfonyl}-3-thiomorpholine carboxamide]
inhibition at 3 µM [1]: 91%

CCC#CCOc1ccc(S(=O)(=O)N2CCSC(C)(C)[C@@H]2C(=O)NO)cc1 [Example 259, (3S)-N-Hydroxy-2,2-dimethyl-4-{[4-(2-pentynyloxy)phenyl]sulfonyl}-3-thiomorpholine carboxamide]
inhibition at 3 µM [1]: 92%

CC1(C)SCCN(S(=O)(=O)c2ccc(OCC#CCO)cc2)[C@H]1C(=O)NO [Example 260, (3S)-N-Hydroxy-4-({4-[(4-hydroxy-2-butynyl)oxy]phenyl}sulfonyl)-2,2-dimethyl-3-thiomorpholine carboxamide]
inhibition at 3 µM (THP-1, read-out: THP % inhibition @ 3 µM): 95%

CC(=O)OCC#CCOc1ccc(S(=O)(=O)N2CCSC(C)(C)[C@@H]2C(=O)NO)cc1 [Example 261, 4-[4-({(3S)-3-[(Hydroxyamino)carbonyl]-2,2-dimethylthiomorpholinyl}suffonyl)phenoxy]-2-butynyl acetate]
inhibition at 3 µM [1]: 92%

CC1(C)SCCN(S(=O)(=O)c2ccc(OCC#CC#CCO)cc2)[C@H]1C(=O)NO [Example 262, (3S)-N-Hydroxy-4-({4-[(6-hydroxy-2,4-hexadiynyl)oxy]phenyl}sulfonyl)-2,2-dimethyl-3-thiomorpholine carboxamide]
inhibition at 3 µM [1]: 81%

C#CC#CCOc1ccc(S(=O)(=O)N2CCSC(C)(C)[C@@H]2C(=O)NO)cc1 [Example 263, (3S)-N-Hydroxy-2,2-dimethyl-4-{[4-(2,4-pentadiynyloxy)phenyl]sulfonyl}-3-thiomorpholine carboxamide]
inhibition at 3 µM [1]: 88%

CC1(C)SCCN(S(=O)(=O)c2ccc(OCC#CCF)cc2)[C@H]1C(=O)NO [Example 264, (3S)-4-({4-[(4-Fluoro-2-butynyl)oxy]phenyl}sulfonyl)-N-hydroxy-2,2-dimethyl-3-thiomorpholine carboxamide]
inhibition at 3 µM [1]: 94%

CC1(C)SCCN(S(=O)(=O)c2ccc(OCC#CCN)cc2)C1C(=O)NO (centres unmarked) [Example 265, 4-({4-[(4-Amino-2-butynyl)oxy]phenyl}sulfonyl)-N-hydroxy-2,2-dimethyl-3-thiomorpholine carboxamide]
inhibition at 3 µM [1]: 40%

CC(C)(C)OC(=O)NCC#CCOc1ccc(S(=O)(=O)N2CCSC(C)(C)C2C(=O)NO)cc1 (centres unmarked) [Example 266, tert-Butyl 4-[4-({3-[(hydroxyamino)carbonyl]-2,2-dimethyl-4-thiomorpholinyl}sulfonyl)phenoxy]-2-butynylcarbamate]
inhibition at 3 µM [1]: 79%

CN(CC#CCOc1ccc(S(=O)(=O)N2CCSC(C)(C)C2C(=O)NO)cc1)C(=O)OC(C)(C)C (centres unmarked) [Example 267, tert-butyl 4-[4-({3-[(hydroxyamino)carbonyl]-2,2-dimethyl-4-thiomorpholinyl}sulfonyl)phenoxy]-2-butynyl(methyl)carbamate]
inhibition at 3 µM [1]: 15%

CC(=O)OCCCCC#CCOc1ccc(S(=O)(=O)N2CCSC(C)(C)[C@@H]2C(=O)NO)cc1 [Example 268, 7-[4-({(3S)-3-[(Hydroxyamino)carbonyl]-2,2-dimethylthiomorpholinyl}sulfonyl)phenoxy]-5-heptynyl acetate]
inhibition at 3 µM [1]: 76%

CC1(C)SCCN(S(=O)(=O)c2ccc(OCC#CCCCCO)cc2)[C@H]1C(=O)NO [Example 269, (3S)-N-Hydroxy-4-({4-[(7-hydroxy-2-heptynyl)oxy]phenyl}sulfonyl)-2,2-dimethyl-3-thiomorpholinecarboxamide]
inhibition at 3 µM [1]: 77%

CC#CCOc1ccc(S(=O)(=O)N2[C@@H](C(=O)NO)C(C)(C)SC[C@@H]2C)cc1 [Example 270, (3S,5S)-4-{[4-(2-Butynyloxy)phenyl]sulfonyl}-N-hydroxy-2,2,5-trimethyl-3-thiomorpholinecarboxamide]
inhibition at 3 µM [2]: 62%

CC#CCOc1ccc(S(=O)(=O)N2[C@H](C)CSC(C)(C)[C@@H]2C(=O)NO)cc1 [Example 271, (3S,5R)-4-{[4-(2-Butynyloxy)phenyl]sulfonyl}-N-hydroxy-2,2,5-trimethyl-3-thiomorpholinecarboxamide]
inhibition at 3 µM [2]: 82%

CC#CCOc1ccc(S(=O)(=O)N2C[C@H](C)SC(C)(C)[C@@H]2C(=O)NO)cc1 [Example 272, (3S,6S)-4-{[4-(2-Butynyloxy)phenyl]sulfonyl}-N-hydroxy-2,2,6-trimethyl-3-thiomorpholinecarboxamide]
inhibition at 3 µM [2]: 92%

CC#CCOc1ccc(S(=O)(=O)N2C[C@@H](CNC(=O)OC(C)(C)C)SC(C)(C)[C@@H]2C(=O)NO)cc1 [Example 273, tert-Butyl{(2R,5S)-4-{[4-(2-butynyloxy)phenyl]sulfonyl}-5-[(hydroxyamino)carbonyl]-6,6-dimethylthiomorpholinyl}methylcarbamate]
inhibition at 3 µM [2]: 90%

CC#CCOc1ccc(S(=O)(=O)N2C[C@@H](CN)SC(C)(C)[C@@H]2C(=O)NO)cc1 [Example 275, (3S,6R)-Trans-6-(aminomethyl)-4-{[4-(2-butynyloxy)phenyl]sulfonyl}-N-hydroxy-2,2-dimethyl-3-thiomorpholinecarboxamide hydrochloride]
inhibition at 3 µM [2]: 82%

CC#CCOc1ccc(S(=O)(=O)N2C[C@H](CC(=O)OC(C)(C)C)SC(C)(C)[C@@H]2C(=O)NO)cc1 [Example 277, tert-Butyl{(2S,5S)-4-{[4-(2-butynyloxy)phenyl]sulfonyl}-5-[(hydroxyamino)carbonyl]-6,6-dimethylthiomorpholinyl}acetate]
inhibition at 3 µM [2]: 69%

CC#CCOc1ccc(S(=O)(=O)N2C[C@H](CC(=O)O)SC(C)(C)[C@@H]2C(=O)NO)cc1 [Example 278, {(2S,5S)-4-{[4-(2-Butynyloxy)phenyl]sulfonyl}-5-[(hydroxyamino)carbonyl]-6,6-dimethylthiomorpholinyl}acetic acid]
inhibition at 3 µM [2]: 89%

CC#CCOc1ccc(S(=O)(=O)N2C[C@H](CC(=O)NO)SC(C)(C)[C@@H]2C(=O)NO)cc1 [Example 279, (3S,6S)-4-{[4-(2-Butynyloxy)phenyl]sulfonyl}-N-hydroxy-6-[2-(hydroxyamino)-2-oxoethyl]-2,2-dimethyl-3-thiomorpholinecarboxamide]
inhibition at 3 µM [2]: 87%

CC#CCOc1ccc(S(=O)(=O)N2C[C@H](CC(N)=O)SC(C)(C)[C@@H]2C(=O)NO)cc1 [Example 280, (3S,6S)-6-(2-Amino-2-oxoethyl)-4-{[4-(2-butynyloxy)phenyl]sulfonyl}-N-hydroxy-2,2-dimethyl-3-thiomorpholinecarboxamide]
inhibition at 3 µM [2]: 91%

CC#CCOc1ccc(S(=O)(=O)N2C[C@H](CC(=O)N(C)C)SC(C)(C)[C@@H]2C(=O)NO)cc1 [Example 281, (3S,6S)-4-{[4-(2-Butynyloxy)phenyl]sulfonyl}-6-[2-(dimethylamino)-2-oxoethyl]-N-hydroxy-2,2-dimethyl-3-thiomorpholinecarboxamide]
inhibition at 3 µM [2]: 76%

CC#CCOc1ccc(S(=O)(=O)N2C[C@H](CC(=O)N3CCOCC3)SC(C)(C)[C@@H]2C(=O)NO)cc1 [Example 282, (3S,6S)-4-{[4-(2-Butynyloxy)phenyl]sulfonyl}-N-hydroxy-2,2-dimethyl-6-[2-(4-morpholinyl)-2-oxoethyl]-3-thiomorpholinecarboxamide]
inhibition at 3 µM [2]: 91%

CC#CCOc1ccc(S(=O)(=O)N2C[C@H](CC(=O)N3CCN(C)CC3)SC(C)(C)[C@@H]2C(=O)NO)cc1 [Example 283, (3S,6S)-4-{[4-(2-Butynyloxy)phenyl]sulfonyl}-N-hydroxy-2,2-dimethyl-6-[2-(4-methyl-1-piperazinyl)-2-oxoethyl]-3-thiomorpholinecarboxamide hydrochloride]
inhibition at 3 µM [2]: 90%
